# Laboratory results published in US4808411A, “Antibiotic-polymer compositions” (Abbott Laboratories, priority 1987, dated 1989).
# Assays:
# [1] = Solubility of drug after stirring material providing approx. 20 mg/mL active drug for 24 hours in water (buffer for pure drugs); format: physicochemical
# [2] = Bioavailability of 6-O-methylerythromycin in dogs (Example 12); format: in vivo; conditions: dog, blood, po, 250 mg 6-O-methylerythromycin, fasted, histamine
# Description: All dogs were fasted overnight, and histamine was administered one hour prior to dosing with the test composition. […] Blood samples were drawn and assayed using a standard microbiological assay. All dogs were fed 12 hours after dosing.
"solubility at 24 h ([1]; pH 6.2, aqueous buffer)","solubility at 24 h ([1]; pH 7, aqueous buffer)","solubility at 24 h ([1]; pH 7.98, aqueous buffer)",AUC(0-t) at 8 h [2],Cmax [2],Tmax [2],Structure (SMILES),"solubility at 24 h ([1]; pH 7.72, aqueous buffer)","solubility at 24 h ([1]; pH 8.24, aqueous buffer)"
7000 µg/mL,1650 µg/mL,134 µg/mL,43500 ng·h/mL,5370 ng/mL,1.33 h,"CC[C@H]1OC(=O)[C@H](C)[C@@H](O[C@H]2C[C@@](C)(OC)[C@@H](O)[C@H](C)O2)[C@H](C)[C@@H](O[C@@H]2O[C@H](C)C[C@H](N(C)C)[C@H]2O)[C@](C)(OC)C[C@@H](C)C(=O)[C@H](C)[C@@H](O)[C@]1(C)O [6-O--Methyl-ery, 6-O-methylerythromycin]",–,–
–,–,–,–,–,–,"CC[C@H]1OC(=O)[C@H](C)[C@@H](O[C@H]2C[C@@](C)(OC)[C@@H](O)[C@H](C)O2)[C@H](C)[C@@H](O[C@@H]2O[C@H](C)C[C@H](N(C)C)[C@H]2O)[C@](C)(O)C[C@@H](C)C(=O)[C@H](C)[C@@H](O)[C@]1(C)O [Erythromycin, erythromycin]",12200 µg/mL,2120 µg/mL
